Values joined by “and” are separate entries in the source; they are usually repeats but may differ in a detail not shown here. Identical values can stand only once. Like-named read-outs stand apart in the source and are kept apart here.
Tests used:
porcine liver CES = test: CES inhibition, 4-NPA substrate; type: biochemical; settings: compound concentration 20 µM
[1] = Ferric reducing antioxidant power (FRAP) assay; design: key: ratio of Trolox to test compound concentration giving same FRAP effect; settings: Trolox equivalents; compound concentration 20 µM
Method: The ferric reducing antioxidant power (FRAP) assay proposed by Benzie and Strain [106, 107] was modified to be performed in 96-well microplates, as described in detail in [32]. The FRAP reagent contained 2.5 mL of 10 mM TPTZ (2,4,6-tris(2-pyridyl)-s-triazine, Sigma-Aldrich) solution in 40 mM HCl, 2.5 mL of 20 mM FeCl3 (Sigma-Aldrich) in distilled water and 25 mL of 0.3 M acetate buffer (pH 3.6). Aliquots of 10 µL of the tested compound (compounds 3, 5 or reference substance) dissolved in DMSO (0.5 mM) were placed in quadruplicate. Absorbance was measured at the wavelength of 593 nm after 60-min incubation at 37 °C. In each case, Trolox was used as a reference compound to obtain the standard curve and value was calculated with respect to the activity of Trolox and expressed as Trolox equivalents (TE)—the values calculated as the ratio of the concentrations of Trolox and the test compound, resulting in the same effect on ferric reducing activity.

equine serum BChE = target: T1, equine serum BChE (Equus caballus, UniProt P81908); test: biochemical; settings: n = 3
T1 construct: we used human erythrocyte AChE, equine serum BChE, and porcine liver CES; purchased Sigma-Aldrich; host or cells: equine serum

human erythrocyte AChE [2] = target: T2, human erythrocyte AChE (Homo sapiens, UniProt P22303); settings: 5d (m = 5) relative to 5a (m = 2)
EeAChE PAS = target: T3, EeAChE PAS (Electrophorus electricus, UniProt O42275); test: Propidium iodide displacement from the PAS of EeAChE; type: binding, Electric eel; settings: compound concentration 20 µM
T3 construct: purchased Sigma-Aldrich type VI-S
Method: The enzyme was Electric eel AChE (EeAChE type VI-S, lyophilized powder, Sigma-Aldrich). We selected this source of AChE for consistency with our other reports and because of the purity, specific activity, and lower cost compared to human AChE.
The assay is based on the high level of fluorescence intensity of propidium iodide bound with AChE decreasing in the presence of test compounds that competitively displace propidium iodide from the AChE PAS [25, 27]. Specificially, EeAChE ([…] final concentration) is incubated with the test compound (20 μM in 1 mM Tris-HCl buffer pH 8.0, 25 °C, for 15 min). Propidium iodide (final concentration 8 μM) is then added for a further 15-min incubation and the fluorescence spectrum is taken (530 nm (excitation) and 600 nm (emission)). The same concentration of propidium iodide in the Tris-HCI buffer was used as the blank. Triplicate determinations were recorded from a FLUOStar Optima microplate reader and results calculated via the following equation:% Displacement = 100 − (IFAChE+ Propidium + inhibitor/IFAChE + Propidium) × 100(1) where IFAChE + Propidium = fluorescence intensity of propidium iodide associated with AChE in the absence of the test compound (taken as 100%), and IFAChE + Propidium + inhibitor = fluorescence intensity of propidium iodide associated with AChE in the presence of the test compound.

[3] = ABTS radical cation scavenging activity assay; settings: 1 h incubation; for IC50: ABTS•+ 100 μM; for ABTS•+-Scavenging Activity, TEAC: Trolox equivalent antioxidant capacity
Method: Radical scavenging activity of the compounds was assessed using the ABTS radical cation (ABTS^•+) decolorization assay with modifications, described in detail in [30, 32]. ABTS (2,2′-azino-bis-(3-ethylbenzothiazoline-6-sulfonic acid)) was purchased from Tokyo Chemical Industry Co., Ltd. (Tokyo, Japan), potassium persulfate (dipotassium peroxodisulfate), Trolox (6-hydroxy-2,5,7,8-tetramethylchroman-2-carboxylic acid), HPLC-grade ethanol, and DMSO were obtained from Sigma-Aldrich. All tested compounds were dissolved in DMSO.
The reaction was monitored for 1 h with an interval of 1–10 min. Data are given for 1 h of incubation of compounds with ABTS^•+ (100 μM final concentration). The reduction in absorbance was measured spectrophotometrically at 734 nm using xMark UV/VIS microplate spectrophotometer (Bio-Rad, Hercules, CA, USA). Ethanol blanks were run in each assay. Values were obtained from three replicates of each sample and three independent experiments. Standard antioxidant Trolox was used as a reference compound. Trolox equivalent antioxidant capacity (TEAC) values were determined as the ratio between the slopes obtained from the linear correlation of the ABTS radical absorbance with the concentrations of tested compounds and Trolox.

BChE = target: T4, BChE (Equus caballus, UniProt P81908); test: Kinetic study of BChE inhibition (Lineweaver-Burk); type: biochemical; settings: for type of BChE inhibition: Lineweaver–Burk plots; for Ki: competitive component; for αKi, BChE: non-competitive component
T4 construct: we used human erythrocyte AChE, equine serum BChE, and porcine liver CES; purchased Sigma-Aldrich; host or cells: equine serum
Method: (§1) We assessed the mechanisms of AChE and BChE inhibition by performing a thorough analysis of enzyme kinetics. After a 5 min incubation at 25 °C (for temperature equilibration) with three increasing concentrations of inhibitor and six decreasing substrate concentrations, the residual enzyme activity was measured as described above for enzymatic assays.

human erythrocyte AChE [4] = target: T2, human erythrocyte AChE; test: biochemical
β-amyloid (1–42) (Aβ42) = β-amyloid (1–42) (Aβ42) (Homo sapiens, UniProt P05067); test: Inhibition of Aβ42 self-aggregation, Thioflavin T fluorescence; type: biochemical; settings: Aβ42 50 µM, compound 100 µM
Method: The inhibitory effect of the test compounds toward Aβ42 self-aggregation was determined using the Thioflavin T (ThT) fluorescence method with minor modifications. […] Therefore, the decrease in ThT fluorescence correlates with the activity of studied compounds to inhibit the formation of amyloid aggregates.
A total of 1 mg of lyophilized HFIP-pretreated Aβ42 from rPeptide (Watkinsville, GA, USA) was dissolved in DMSO to obtain a stable initial solution ([Aβ42] = 500 μM), then it was aliquoted and stored at −20 °C.
Then, the samples were incubated for 24 h at 37 °C without stirring in the absence (base level of Aβ42 self-aggregation, control) or presence of the test compounds. Myricetin and propidium iodide were used as references (positive controls). All compounds were used at a concentration of 100 µM. […] Analyses were performed with a FLUOStar Optima microplate reader (LabTech, Ortenberg, Germany). […] Each assay was run in triplicate.

AChE = target: T5, AChE (Homo sapiens, UniProt P22303); test: Kinetic study of AChE inhibition (Lineweaver-Burk); type: biochemical; settings: for type of AChE inhibition: Lineweaver–Burk plots; for Ki: read-out: Ki, the competitive component, AChE
T5 construct: we used human erythrocyte AChE, equine serum BChE, and porcine liver CES; purchased Sigma-Aldrich; host or cells: human erythrocytes
Method: as §1

[5] = mean ± SEM, read-out: Equine Serum BChE, IC50

T5 sequence (P22303 other isoform, or with tags, fused parts or gaps): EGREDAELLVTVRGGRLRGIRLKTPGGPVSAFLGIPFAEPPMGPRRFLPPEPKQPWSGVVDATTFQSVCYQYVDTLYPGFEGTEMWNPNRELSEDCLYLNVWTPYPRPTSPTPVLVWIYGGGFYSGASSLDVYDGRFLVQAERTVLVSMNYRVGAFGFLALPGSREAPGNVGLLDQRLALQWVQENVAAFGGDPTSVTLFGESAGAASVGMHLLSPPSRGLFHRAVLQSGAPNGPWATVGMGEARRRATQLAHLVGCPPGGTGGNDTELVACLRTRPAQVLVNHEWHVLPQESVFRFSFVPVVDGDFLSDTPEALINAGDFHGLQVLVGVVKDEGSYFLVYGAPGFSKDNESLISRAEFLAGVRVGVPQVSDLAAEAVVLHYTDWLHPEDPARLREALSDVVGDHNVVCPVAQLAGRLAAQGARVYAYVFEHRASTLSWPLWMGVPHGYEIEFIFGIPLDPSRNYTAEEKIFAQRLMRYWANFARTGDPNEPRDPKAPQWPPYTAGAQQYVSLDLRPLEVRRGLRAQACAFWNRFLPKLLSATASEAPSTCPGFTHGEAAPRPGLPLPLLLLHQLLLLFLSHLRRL
T2 sequence (P22303 other isoform, or with tags, fused parts or gaps): as above
T1 sequence (P81908 whole entry): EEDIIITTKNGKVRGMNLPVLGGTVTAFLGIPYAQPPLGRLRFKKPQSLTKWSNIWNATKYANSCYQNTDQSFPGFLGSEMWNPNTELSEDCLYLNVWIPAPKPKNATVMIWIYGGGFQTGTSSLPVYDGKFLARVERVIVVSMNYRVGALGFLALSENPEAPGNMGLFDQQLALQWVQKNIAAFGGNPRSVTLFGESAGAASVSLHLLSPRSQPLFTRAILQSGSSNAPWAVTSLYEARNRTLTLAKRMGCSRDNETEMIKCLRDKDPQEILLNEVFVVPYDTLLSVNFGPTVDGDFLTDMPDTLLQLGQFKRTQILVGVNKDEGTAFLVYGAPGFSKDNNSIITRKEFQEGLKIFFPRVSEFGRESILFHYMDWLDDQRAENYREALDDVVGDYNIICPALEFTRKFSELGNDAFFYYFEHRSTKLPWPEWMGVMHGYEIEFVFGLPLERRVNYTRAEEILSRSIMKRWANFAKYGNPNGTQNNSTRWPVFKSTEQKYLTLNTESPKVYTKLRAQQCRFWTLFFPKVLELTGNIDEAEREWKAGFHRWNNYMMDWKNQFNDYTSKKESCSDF
T4 sequence (P81908 whole entry): as above
β-amyloid (1–42) (Aβ42), sequence (P05067 672-713): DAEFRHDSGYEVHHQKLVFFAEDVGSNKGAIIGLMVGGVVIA
T3 sequence (O42275 24-633): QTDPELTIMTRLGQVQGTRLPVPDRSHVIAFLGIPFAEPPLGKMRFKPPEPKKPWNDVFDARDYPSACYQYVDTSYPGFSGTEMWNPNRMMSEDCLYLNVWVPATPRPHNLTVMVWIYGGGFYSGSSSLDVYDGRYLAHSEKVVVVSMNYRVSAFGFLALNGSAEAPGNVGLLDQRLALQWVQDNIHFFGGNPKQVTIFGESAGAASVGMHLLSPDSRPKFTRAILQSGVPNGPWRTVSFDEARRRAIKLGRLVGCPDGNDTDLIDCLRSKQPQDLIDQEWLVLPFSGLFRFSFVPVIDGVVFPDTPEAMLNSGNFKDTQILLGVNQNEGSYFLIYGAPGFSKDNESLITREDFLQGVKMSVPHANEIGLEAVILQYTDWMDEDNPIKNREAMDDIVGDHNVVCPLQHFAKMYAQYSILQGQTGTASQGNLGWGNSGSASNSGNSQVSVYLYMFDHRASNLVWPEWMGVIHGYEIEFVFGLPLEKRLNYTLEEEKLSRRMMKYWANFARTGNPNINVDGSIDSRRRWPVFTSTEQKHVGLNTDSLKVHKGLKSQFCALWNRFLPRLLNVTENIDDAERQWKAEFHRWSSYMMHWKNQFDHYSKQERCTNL

Structure (SMILES) | Porcine Liver CES, (%) inhibition (porcine liver CES) | FRAP, TE [1] | IC50 (equine serum BChE; [5]) | enhancement of anti-AChE activity, fold (human erythrocyte AChE [2]) | Displacement of Propidium from EeAChE PAS (EeAChE PAS) | IC50 [3] | ABTS•+-Scavenging Activity, TEAC [3] | type of BChE inhibition (BChE) | Ki (BChE) | αKi, BChE (BChE) | IC50 (human erythrocyte AChE [4]) | inhibition at 100 µM (β-amyloid (1–42) (Aβ42)) | αKi, the non-competitive component, AChE (AChE) | type of AChE inhibition (AChE) | Ki (AChE) | IC50 (equine serum BChE; MEAN ± SEM, read-out: IC50 for BChE inhibition (Figure S25)) | Inhibition of Aβ42 Self-Aggregation (β-amyloid (1–42) (Aβ42))
O=[N+]([O-])c1ccc(OP(=O)(O)Oc2ccc([N+](=O)[O-])cc2)cc1 [BNPP, bis-4-nitrophenyl phosphate, reference compound] | 99.1 ± 0.93 ^3% | – | – | – | – | – | – | – | – | – | – | – | – | – | – | – | –
S=C(NCCCCCNC(=S)Nc1c2c(nc3c1CCC3)CCCC2)Nc1c2c(nc3c1CCC3)CCCC2 [Compound 5d] | 12.8 ± 1.1% | 0.45 ± 0.03 | 0.76 µM and 0.758 µM | 24 fold | 11.2 ± 1.0% | 10.9 ± 0.7 µM | 1.6 ± 0.06 | mixed-type inhibition | 0.34 ± 0.012 µM | 1.85 ± 0.06 µM | 4.01 ± 0.13 µM | 12.8 ± 1.1% | 7.75 ± 0.11 µM | mixed-type inhibition | 1.18 ± 0.08 µM | – | –
O=C(CNCCCCNCC(=O)Nc1c2c(nc3c1CCC3)CCCC2)Nc1c2c(nc3c1CCC3)CCCC2 [Compound 3c] | 0.8 ± 0.2% | – | 0.067 ± 0.001 µM | – | 17.7 ± 1.4% | ~200 µM | 0.10 ± 0.005 | – | – | – | 1.46 ± 0.03 µM | – | – | – | – | 0.0696 µM | –
O=C(CNCCNCC(=O)Nc1c2c(nc3c1CCC3)CCCC2)Nc1c2c(nc3c1CCC3)CCCC2 [Compound 3a] | 4.8 ± 0.4% | – | 0.11 ± 0.004 µM | – | 14.4 ± 1.2% | ~180 µM | 0.10 ± 0.004 | mixed-type inhibition | 0.0578 ± 0.0025 µM | 0.189 ± 0.007 µM | 1.64 ± 0.08 µM | – | 2.62 ± 0.13 µM | mixed-type inhibition | 0.772 ± 0.047 µM | – | –
S=C(NCCCNC(=S)Nc1c2c(nc3c1CCC3)CCCC2)Nc1c2c(nc3c1CCC3)CCCC2 [Compound 5b] | 4.2 ± 0.5% | 0.50 ± 0.03 | 0.689 ± 0.025 µM | – | 9.3 ± 0.8% | 9.9 ± 0.5 µM | 1.9 ± 0.08 | – | – | – | 10.9 ± 1 µM | 1.6 ± 0.1% | – | – | – | – | –
S=C(NCCNC(=S)Nc1c2c(nc3c1CCC3)CCCC2)Nc1c2c(nc3c1CCC3)CCCC2 [Compound 5a, 2,2′-Ethane-1,2-diylbis[N-(2,3,5,6,7,8-hexahydro-1H-cyclopenta[b]quinolin-9-yl)(thiourea)]] | 4.3 ± 0.2% | 0.52 ± 0.04 | 4.08 ± 0.23 µM | – | 7.6 ± 0.6% | 7.6 ± 0.4 µM | 2.1 ± 0.07 | – | – | – | 96 ± 3.7 µM | 2.9 ± 0.2% | – | – | – | – | –
S=C(NCCCCCCCNC(=S)Nc1c2c(nc3c1CCC3)CCCC2)Nc1c2c(nc3c1CCC3)CCCC2 [Compound 5f] | 5.8 ± 0.3% | 0.55 ± 0.01 | 1.18 ± 0.08 µM | – | 2.5 ± 0.2% | 12.4 ± 0.8 µM | 1.2 ± 0.05 | – | – | – | 6.28 ± 0.46 µM | 3.7 ± 0.3% | – | – | – | – | –
Cc1c(C)c2c(c(C)c1O)CCC(C)(C(=O)O)O2 (stereo not shown) [Trolox, 6-hydroxy-2,5,7,8-tetramethylchroman-2-carboxylic acid, reference compound] | – | 1.0 | – | – | – | 20 µM and 20.1 µM | 1.0 | – | – | – | – | – | – | – | – | – | –
O=C(CNCCCCCCNCC(=O)Nc1c2c(nc3c1CCC3)CCCC2)Nc1c2c(nc3c1CCC3)CCCC2 [Compound 3d] | 6.0 ± 0.6% | – | 1.11 ± 0.04 µM | – | 11.2 ± 0.8% | – | – | – | – | – | 1.39 ± 0.1 µM | – | – | – | – | – | –
CC[N+](C)(CC)CCC[n+]1c(-c2ccccc2)c2cc(N)ccc2c2ccc(N)cc21.[I-].[I-] [Propidium iodide, reference compound] | – | – | – | – | – | – | – | – | – | – | – | – | – | – | – | – | 90.7 ± 7.1%
O=C(CNCCCCCCCCNCC(=O)Nc1c2c(nc3c1CCC3)CCCC2)Nc1c2c(nc3c1CCC3)CCCC2 [Compound 3e] | 5.1 ± 0.9% | 0.05 ± 0.01 | 6.65 ± 0.5 µM | – | 13.2 ± 1.0% | > 200 µM | 0.04 ± 0.002 | – | – | – | 11.7 ± 1.1 µM | – | – | – | – | – | –
O=C(CNCCCNCC(=O)Nc1c2c(nc3c1CCC3)CCCC2)Nc1c2c(nc3c1CCC3)CCCC2 [Compound 3b] | 4.4 ± 0.5% | 0.05 ± 0.01 | 0.128 ± 0.002 µM | – | 14.7 ± 1.2% | > 200 µM | 0.05 ± 0.003 | – | – | – | 2.91 ± 0.74 µM | – | – | – | – | – | –
S=C(NCCCCCCNC(=S)Nc1c2c(nc3c1CCC3)CCCC2)Nc1c2c(nc3c1CCC3)CCCC2 [Compound 5e] | 10.3 ± 1.0% | 0.49 ± 0.01 | 0.769 ± 0.02 µM | – | 11.1 ± 0.9% | 10.9 ± 0.7 µM | 1.5 ± 0.07 | – | – | – | 4.08 ± 0.46 µM | 14.3 ± 1.1% | – | – | – | – | –
Nc1c2c(nc3c1CCC3)CCCC2 [Amiridine] | – | – | – | – | – | – | 0.04 ± 0.003 | – | – | – | – | – | – | – | – | – | –
S=C(NCCCCNC(=S)Nc1c2c(nc3c1CCC3)CCCC2)Nc1c2c(nc3c1CCC3)CCCC2 [Compound 5c] | 9.6 ± 0.8% | 0.35 ± 0.02 | 0.802 ± 0.081 µM | – | 10.0 ± 0.8% | 9.7 ± 0.6 µM | 1.8 ± 0.05 | – | – | – | 7.53 ± 0.59 µM | 17.2 ± 1.5% | – | – | – | – | –
S=C(NCCCCCCCCNC(=S)Nc1c2c(nc3c1CCC3)CCCC2)Nc1c2c(nc3c1CCC3)CCCC2 [Compound 5g] | 15.9 ± 1.5% | 0.85 ± 0.03 | 1.45 ± 0.09 µM | – | 2.2 ± 0.2% | 10.8 ± 0.6 µM | 1.5 ± 0.07 | – | – | – | 26.6 ± 0.6 µM | 5.2 ± 0.4% | – | – | – | – | –

— PMC8839189, “Bis-Amiridines as Acetylcholinesterase and Butyrylcholinesterase Inhibitors: N-Functionalization Determines the Multitarget Anti-Alzheimer’s Activity Profile” (Molecules, 2022)
